# Source: patent US20240308995A1, “O-GLYCOPROTEIN-2-ACETAMIDO-2-DEOXY-3-D-GLUCOPYRANOSIDASE INHIBITORS” (BIOGEN MA INC., priority 2018, published 2024)
# Tests used:
# [1] = target: Recombinant full length human OGA enzyme (Homo sapiens (Human), UniProt O60502); assay: OGA Enzyme Inhibition Biochemical Assay; conditions: 1 nM OGA, 100 μM 4-MUGlcNAc, pH 6.4
# Summary of the method: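 Full-length recombinant human OGA with fluorogenic 4-MUGlcNAc in McIlvaine buffer pH 6.4, 0.01% BSA; 90 min at room temperature, glycine pH 10 quench, fluorescence Ex 355/Em 460 nm. 10-point, 4-fold dilution from 20 μM; 4-parameter variable-slope fit.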
# [2] = target: OGA (S400 O-GLCNAC), HEK-293T cells transfected with Tau-V5 (Homo sapiens (Human), UniProt O60502); assay: Cellular OGA-Tau MSD Assay; type: cell-based; conditions: HEK-293T cells, Tau-S400-GlcNAc MSD readout
# Chain of OGA (S400 O-GLCNAC), HEK-293T cells transfected with Tau-V5 (O60502 whole entry): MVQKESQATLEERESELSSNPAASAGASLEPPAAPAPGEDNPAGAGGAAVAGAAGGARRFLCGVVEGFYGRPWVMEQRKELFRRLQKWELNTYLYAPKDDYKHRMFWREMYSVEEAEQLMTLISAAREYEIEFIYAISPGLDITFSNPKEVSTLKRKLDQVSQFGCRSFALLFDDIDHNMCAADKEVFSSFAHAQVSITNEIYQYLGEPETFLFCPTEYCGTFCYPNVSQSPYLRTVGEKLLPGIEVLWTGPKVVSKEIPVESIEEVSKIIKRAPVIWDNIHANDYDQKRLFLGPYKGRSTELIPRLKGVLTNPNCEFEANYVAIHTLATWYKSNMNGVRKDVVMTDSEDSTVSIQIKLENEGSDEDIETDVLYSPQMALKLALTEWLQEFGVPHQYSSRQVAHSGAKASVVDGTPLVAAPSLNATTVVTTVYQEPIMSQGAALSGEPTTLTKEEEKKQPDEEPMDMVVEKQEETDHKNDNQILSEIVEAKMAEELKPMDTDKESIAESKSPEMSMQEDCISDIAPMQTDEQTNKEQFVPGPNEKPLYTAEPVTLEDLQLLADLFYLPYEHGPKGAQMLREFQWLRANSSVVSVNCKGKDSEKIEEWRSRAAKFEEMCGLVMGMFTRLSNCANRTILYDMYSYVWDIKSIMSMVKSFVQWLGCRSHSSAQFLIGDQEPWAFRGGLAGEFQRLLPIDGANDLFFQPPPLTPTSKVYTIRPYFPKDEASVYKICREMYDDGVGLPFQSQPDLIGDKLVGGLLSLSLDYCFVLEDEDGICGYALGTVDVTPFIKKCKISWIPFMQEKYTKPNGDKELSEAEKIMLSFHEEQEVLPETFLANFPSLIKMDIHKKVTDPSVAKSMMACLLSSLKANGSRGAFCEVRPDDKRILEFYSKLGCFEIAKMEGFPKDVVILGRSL
# Summary of the method: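 HEK-293T cells transfected with OGA and Tau-V5 plasmids were treated overnight at 37° C with a 10-point, 3-fold titration from 1 uM. Lysates went onto V5-antibody MSD plates to capture Tau, probed with a Tau O-GlcNAc antibody and read by electrochemiluminescence; IC50 from a 4-parameter fit.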
# [3] = system: P-gp (MDR1); assay: MDR1-MDCK Efflux Ratio Assay; type: in vitro ADME; conditions: dog, MDCK-MDR1, pH 7.4, MDR1-MDCK cells, 2 hr, pH 7.4; read-out: MDR1-MDCK Efflux Ratio (B-A/A-B)
# Summary of the method: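 Bidirectional (apical↔basolateral) transport across confluent MDR1-MDCK monolayers in HBSS/10 mM HEPES pH 7.4, receiver buffer with 1% BSA; 2 hr at 37° C, 5% CO2. Donor sampled at 0 and 120 min, receiver at 120 min, quantified by LC-MS/MS in triplicate. Papp, efflux ratio and percent recovery calculated.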
# [4] = Rat Liver Microsome Stability Assay; type: in vitro ADME; conditions: rat liver microsomes, 1 uM compound
# Chain of Recombinant full length human OGA enzyme (O60502 whole entry): as above
IC50 [1] [µM],IC50 [2] [µM],efflux ratio at 2 h [3],RLM % Qh (%) [4] [%],Compound
< 0.001,0.002,9.3,88,"COc1cc(O[C@@H]2CC[C@H](C)N(Cc3cnc(NC(C)=O)s3)C2)ncn1 [Example 1-44, N-(5-(((2S,5R)-5-((6-methoxypyrimidin-4-yl)oxy)-2-methylpiperidin-1-yl)methyl)thiazol-2-yl)acetamide]"
0.047,0.966,1.7,61,"CCC(=O)Nc1nc(F)c(CN2CC[C@@H](Oc3cc(OC)ncn3)C2)s1 [Example 1-45, (R)—N-(4-fluoro-5-((3-((6-methoxypyrimidin-4-yl)oxy)pyrrolidin-1-yl)methyl)thiazol-2-yl)propionamide]"
0.001,0.038,3.2,55,"COc1cc(O[C@@H]2C[C@H](C)N(Cc3sc(NC(C)=O)nc3Cl)C2)ncn1 [Example 1-46, N-(4-chloro-5-(((2S,4R)-4-((6-methoxypyrimidin-4-yl)oxy)-2-methylpyrrolidin-1-yl)methyl)thiazol-2-yl)acetamide]"
< 0.001,0.001,1.5,76,"CC(=O)Nc1nc(F)c(CN2C[C@H](Oc3ccc(F)cn3)C[C@@H]2C)s1 [Example 1-47, N-(4-fluoro-5-(((2S,4R)-4-((5-fluoropyridin-2-yl)oxy)-2-methylpyrrolidin-1-yl)methyl)thiazol-2-yl)acetamide]"
0.15,0.821,24.1,57,"CC(=O)Nc1nc(F)c(CN2CC[C@H](Oc3cc(C)nc(C)c3)C2)s1 [Example 1-48, (S)—N-(5-((3-((2,6-dimethylpyridin-4-yl)oxy)pyrrolidin-1-yl)methyl)-4-fluorothiazol-2-yl)acetamide]"
< 0.001,0.01,18.9,34,"CC(=O)Nc1nc(F)c(CN2CC[C@@H](Oc3cc(C)nc(C)c3)C2)s1 [Example 1-49, (R)—N-(5-((3-((2,6-dimethylpyridin-4-yl)oxy)pyrrolidin-1-yl)methyl)-4-fluorothiazol-2-yl)acetamide]"
< 0.001,0.001,22.4,47,"CC(=O)Nc1nc(F)c(CN2C[C@H](Oc3cc(C)nc(C)c3)C[C@@H]2C)s1 [Example 1-50, N-(5-(((2S,4R)-4-((2,6-dimethylpyridin-4-yl)oxy)-2-methylpyrrolidin-1-yl)methyl)-4-fluorothiazol-2-yl)acetamide]"
0.033,0.055,12.9,76,"CC(=O)Nc1nc(F)c(CN2C[C@@H](Oc3cc(C)nc(C)c3)C[C@@H]2C)s1 [Example 1-52, N-(5-(((2S,4S)-4-((2,6-dimethylpyridin-4-yl)oxy)-2-methylpyrrolidin-1-yl)methyl)-4-fluorothiazol-2-yl)acetamide]"
1.7,> 1,21.8,26,"CC(=O)Nc1nc(F)c(CN2C[C@@H](Oc3cc(C)nc(C)c3)C[C@H]2C)s1 [Example 1-53, N-(5-(((2R,4S)-4-((2,6-dimethylpyridin-4-yl)oxy)-2-methylpyrrolidin-1-yl)methyl)-4-fluorothiazol-2-yl)acetamide]"
0.011,0.07,25.4,78,"CC(=O)Nc1nc(F)c(CN2CCC[C@H](Oc3cc(C)nc(C)c3)C2)s1 [Example 1-54, (S)—N-(5-((3-((2,6-dimethylpyridin-4-yl)oxy)piperidin-1-yl)methyl)-4-fluorothiazol-2-yl)acetamide]"
0.0011,0.013,19,85,"CC(=O)Nc1nc(F)c(CN2CCC[C@@H](Oc3cc(C)nc(C)c3)C2)s1 [Example 1-55, (R)—N-(5-((3-((2,6-dimethylpyridin-4-yl)oxy)piperidin-1-yl)methyl)-4-fluorothiazol-2-yl)acetamide]"
< 0.001,0.003,26.4,93,"CC(=O)Nc1nc(F)c(CN2C[C@H](Oc3cc(C)nc(C)c3)CC[C@@H]2C)s1 [Example 1-57, N-(5-(((2S,5R)-5-((2,6-dimethylpyridin-4-yl)oxy)-2-methylpiperidin-1-yl)methyl)-4-fluorothiazol-2-yl)acetamide]"
0.52,> 1,28.5,16,"CC(=O)Nc1ncc(CN2CC[C@H](Oc3cc(C)nc(C)c3)C2)s1 [Example 1-58, (S)—N-(5-((3-((2,6-dimethylpyridin-4-yl)oxy)pyrrolidin-1-yl)methyl)thiazol-2-yl)acetamide]"
0.0019,0.008,22.2,55,"CC(=O)Nc1ncc(CN2CC[C@@H](Oc3cc(C)nc(C)c3)C2)s1 [Example 1-59, (R)—N-(5-((3-((2,6-dimethylpyridin-4-yl)oxy)pyrrolidin-1-yl)methyl)thiazol-2-yl)acetamide]"
< 0.001,0.001,21.3,56,"CC(=O)Nc1ncc(CN2C[C@H](Oc3cc(C)nc(C)c3)C[C@@H]2C)s1 [Example 1-60, N-(5-(((2S,4R)-4-((2,6-dimethylpyridin-4-yl)oxy)-2-methylpyrrolidin-1-yl)methyl)thiazol-2-yl)acetamide]"
0.007,0.039,45.2,31,"CC(=O)Nc1ncc(CN2C[C@H](Oc3cc(C)nc(C)c3)C[C@H]2C)s1 [Example 1-61, N-(5-(((2R,4R)-4-((2,6-dimethylpyridin-4-yl)oxy)-2-methylpyrrolidin-1-yl)methyl)thiazol-2-yl)acetamide]"
0.026,0.089,65,32,"CC(=O)Nc1ncc(CN2C[C@@H](Oc3cc(C)nc(C)c3)C[C@@H]2C)s1 [Example 1-62, N-(5-(((2S,4S)-4-((2,6-dimethylpyridin-4-yl)oxy)-2-methylpyrrolidin-1-yl)methyl)thiazol-2-yl)acetamide]"
0.42,> 1,45.3,16,"CC(=O)Nc1ncc(CN2C[C@@H](Oc3cc(C)nc(C)c3)C[C@H]2C)s1 [Example 1-63, N-(5-(((2R,4S)-4-((2,6-dimethylpyridin-4-yl)oxy)-2-methylpyrrolidin-1-yl)methyl)thiazol-2-yl)acetamide]"
0.023,0.031,35.3,67,"CC(=O)Nc1ncc(CN2CCC[C@H](Oc3cc(C)nc(C)c3)C2)s1 [Example 1-64, (S)—N-(5-((3-((2,6-dimethylpyridin-4-yl)oxy)piperidin-1-yl)methyl)thiazol-2-yl)acetamide]"
0.0021,0.018,17,85,"CC(=O)Nc1ncc(CN2CCC[C@@H](Oc3cc(C)nc(C)c3)C2)s1 [Example 1-65, (R)—N-(5-((3-((2,6-dimethylpyridin-4-yl)oxy)piperidin-1-yl)methyl)thiazol-2-yl)acetamide]"
